Assay results published in patent US7425635B2, “Prodrugs and conjugates of thiol- and selenol-containing compounds and methods of use thereof” (University of Utah Research Foundation, priority 1997, dated 2008).
Read-outs that look alike come from different tables or passages of the source. Marks after values point to notes of the source that are not given here.

Key:
[1] = tested on: E. coli AB1157; experiment: Toxicity in E. coli AB1157 (colony forming ability); type: cell-based
Experimental: (§1) A well characterized bacterial system was used as an initial screen for radioprotective activity of the novel compounds. A single colony of the bacteria, growing on a plate of LB medium (10 g tryptone, 5 g yeast extract, plus 5 g NaCl in 1 L water), was inoculated into 2 mL LB and incubated overnight. 20 mL LB medium were then inoculated with 600 μL of the overnight culture, and incubated with shaking at 37° C., 250 rpm. The cells were collected and washed with phosphate buffered saline. At this point the bacteria could be irradiated, treated with drug, etc., as outlined below. After dilution of the treated cells to 100 cells per 100 μL, they are plated out and incubated overnight. Cell viability is then measured by colony forming ability.
The toxicity of the compounds of interest in this system was explored.

[2] = tested on: E. coli AB1157; experiment: Radioprotection in E. coli AB1157; type: cell-based; details: E. coli AB1157, agent 1 hour before irradiation at 0.6 kGy
Experimental: Radioprotection in E. coli AB1157
as §1
Growth curves were generated for the bacteria in the absence of any treatment to provide experience with basic handling as well as important baseline information. The radiation dose response of the system was investigated irradiating bacterial cultures in a Shepherd Mark I ^137Cs irradiator over a dose range of 0 to 1 kGy. The dose-response curves are linear and reproducible from day to day.
Radioprotection experiments were also conducted in the bacterial system. […] Surviving fraction compared to that seen in control (untreated) cells, which were not irradiated, was then calculated.

[3] = tested on: GPx; experiment: Hepatic and RBC (tButylOOH) GPx activity in four-month feeding study; type: in vivo; details: mice, diet 15 ppm Se, NNK
Experimental: Three novel selenazolidines, 2-methyl-, 2-oxo- and 2-unsubstituted (i.e., selenaproline) selenazolidine-4[R]-carboxylic acid (MSCA, OSCA, and SCA respectively) that had been synthesized as prodrugs of selenocysteine were evaluated for their potential to act as cancer chemopreventive agents. [Se] and GPx activity were evaluated.
(§2) Where indicated, mice (16 g) were given diets fortified with SCA, MSCA or OSCA (15 ppm Se) for 1 week prior to NNK (10 umol, ip). Two other groups received the unmodified AIN-76A diet, with and without NNK administration. All groups were maintained on their pretreatment diet until the animals were sacrificed after 16 weeks. Liver GPx activity is expressed as μmol NADPH oxidized [in regenerating GSH]/min/mg 10,000 g×20 min supernatant protein; RBC activity as μmol/min/mg RBC lysate hemoglobin.

[4] = tested on: GST; experiment: Hepatic cytosolic GST (CDNB) activity after 7 daily ip doses; type: in vivo, mice; details: 7 daily doses ip, hepatic cytosol; naive 5248 ± 503
[5] = tested on: GPx; experiment: Northern blot of liver GPx mRNA after ip dosing; type: in vivo, mice; details: 1.25 mg Se/kg, mean ± SEM
Experimental: (§3) Linking efficacy to biochemical parameters and a mechanism was limited in the initial study by only two parameters, [Se] and GPx activity. The in-vivo effects of selenazolidine compounds were then evaluated using, in addition to GPx, glutathione S-transferases (GSTs), quinone oxidoreductases (NQORs), UDP-glucuronosyltransferases (UGTs), and microsomal epoxide hydrolase (mEH). To investigate transcriptional changes of these classes of enzymes, it was necessary to develop a battery of cDNA probes for use in Northern blot analysis of RNA extracted from treated animals (Table 2).
(§4) Whether the selenaproline compounds had the ability to up-regulate the transcription of Phase II and/or other “protective” enzymes was first evaluated following a single dose of each (Table 3). […] The experiment was repeated but with a 7-day treatment regimen (Table 4), the time period for which the compounds were given in the diet before NNK administration in the tumor experiment reported in Table 1. […] With multiple doses, SCA induced Ugt1a9, an mRNA that was not changed with a single dose. […] The elevation in the Gst-mu transcript was unique to multiple OSCA treatment. The elevation of the GST-alpha mRNA was also seen with SCA treatment. Microsomal epoxide hydrolase mRNA was robustly elevated by multiple doses of all three selenaproline compounds, an effect not anticipated from the single dose experiment where not even minor changes were apparent.

[6] = tested on: Gst-alpha; experiment: Northern blot of liver Gst-alpha mRNA after ip dosing; type: in vivo, mice; details: 1 dose ip, 1.25 mg Se/kg, liver RNA 24 hours after dosing, mean ± SEM
Experimental: as §3, §4

[7] = Body weight gain and liver weight in four-month feeding study; type: in vivo; details: mice, diet 15 ppm Se, NNK
Experimental: as §2

[8] = tested on: GPx; experiment: Hepatic cytosolic GPx (H202) activity after 7 daily ip doses; type: in vivo, mice; details: 7 daily doses ip, hepatic cytosol; naive 894 ± 36
[9] = tested on: Gst-mu; experiment: Northern blot of liver Gst-mu mRNA after ip dosing; type: in vivo, mice; details: 1 dose ip, 1.25 mg Se/kg, liver RNA 24 hours after dosing, mean ± SEM
Experimental: as §3, §4

[10] = tested on: mEH; experiment: Northern blot of liver mEH mRNA after ip dosing; type: in vivo, mice; details: 1.25 mg Se/kg, mean ± SEM
Experimental: as §3, §4

[11] = E. coli AB1157, cell viability by colony forming ability
[12] = 1 dose ip, liver RNA 24 hours after dosing
[13] = 7 daily doses ip, liver RNA 24 hours after the last dose

With `O=C1NCCS1` [2-oxocysteamine prodrug, 2-Thiazolidinone] the “Toxicity in the bacterial system” value [1, 11] was “completely eliminated the profound toxicity observed with cysteamine itself”.

For `NC1CCSC1=O` (centres unmarked) [HCTL, homocysteine thiolactone], the “Radioprotection (surviving fraction)” value [2] was “greatest amount of protection”.

For `O=C1N[C@H](C(=O)O)C[Se]1` [OSCA, 2-Oxoselenazolidine-4(R)-carboxylic acid], the “RBC (tButylOOH) GPx” value ([3]; RBC) was 281 ± 24 μmol/min/mg RBC lysate hemoglobin, the “Hepatic (tButylOOH) GPx” value ([3]; liver) was 518 ± 59 μmol NADPH oxidized/min/mg 10, and the “GST (CDNB) activity” value [4] was 6887 ± 1142 nmol/mg cytosol (100,000 g supernatant) protein/min. The “GPx (1.5 kb) mRNA” value [5, 12] was 0.80 ± 0.22 fold change from naive, the “GPx mRNA” value [5, 13] was 1.13 ± 0.39 fold change from naive and the “Gst-alpha mRNA” value [6] was 1.61 ± 0.53 fold change from naive. For the same compound, the “Body wt gain (%)” value [7] was 39.9* %, the “Liver weight” value [7] was 1.02 ± 0.02 g and the “GPx (H202) activity” value [8] was 880 ± 72 nmol/mg cytosol (100,000 g supernatant) protein/min. For the same compound, the “Gst-mu mRNA” value [9] was 1.38 ± 0.33 fold change from naive, the “mEH mRNA” value [10, 12] was 0.88 ± 0.19 fold change from naive and the “mEH mRNA” value [10, 13] was 2.91 ± 1.48 fold change from naive.

In the case of `NCCCNCCS` [WR-1065, reference compound], the “Toxicity in the bacterial system” value [1, 11] is reported as “neither WR-1065 nor its 2-oxo prodrug produced any toxicity” and the “Radioprotection (surviving fraction)” value [2] is reported as “greatest amount of protection”.

With `NCCS` [cysteamine, reference compound] the “Toxicity in the bacterial system” value [1] was “profound toxicity”.
